In this experiment the test system is kinases (more than 480 kinase assays). Put plainly: DiscoverX KINOMEscan panel. The class given is binding. The settings on record: 1 μM and 10 μM. An excerpt:
A representative disclosed compound, Cpd3, was screened for potential noncovalent binding interaction with kinases by screening a comprehensive panel in the DiscoverX KINOMEscan® platform (Eurofins DiscoverX Corporation, Fremont, Calif. 94538; e.g., see also Herman, S. E. M., et al., Clin Cancer Res; 23(11) Jun. 1, 2017). Panel allows for screening against more than 480 kinase assays including clinically relevant mutants, lipid, atypical, and pathogen kinases. The screening system provides for thermodynamic affinity data (as opposed to IC50s), and allows for detection of multiple inhibitor types, including type I, type II, and allosteric. […] It is notable that the upper limit tested in this screen is at least 10-fold greater than the observed in vitro IC50 for activity in the assays discussed above.

Each structure is given as a SMILES string.

Results on 1 compound are retold here after patent US11999697B2, “Methods and compositions for inhibition of dihydroorotate dehydrogenase” (OHIO STATE INNOVATION FOUNDATION, priority 2018, dated 2024).

`CCOc1ccc(-c2ccc(-c3cc(C(=O)O)c4cc(F)ccc4n3)cc2)cc1` [Cpd3, 2-(4′-ethoxy-[1,1′-biphenyl]-4-yl)-6-fluoroquinoline-4-carboxylic acid]: the “noncovalent binding interaction with kinases” value is reported as “no apparent interactions with the screen targets”.
